Assay results from PMC11247487, “Discovery of Dual MER/AXL Kinase Inhibitors as Bifunctional Small Molecules for Inhibiting Tumor Growth and Enhancing Tumor Immune Microenvironment” (Journal of Medicinal Chemistry, 2024).
“And” between values parts separate entries of the source, which are not always exact repeats. Equal entries are not always repeated. “Also recorded” adds a separate entry of the source.

Experiments:
MER = target: T1, MER (Homo sapiens, UniProt Q12866); details: cited from earlier work
T1 construct: A purified kinase (MER or AXL) was incubated with a compound or DMSO
T1 sequence (Q12866 21-999): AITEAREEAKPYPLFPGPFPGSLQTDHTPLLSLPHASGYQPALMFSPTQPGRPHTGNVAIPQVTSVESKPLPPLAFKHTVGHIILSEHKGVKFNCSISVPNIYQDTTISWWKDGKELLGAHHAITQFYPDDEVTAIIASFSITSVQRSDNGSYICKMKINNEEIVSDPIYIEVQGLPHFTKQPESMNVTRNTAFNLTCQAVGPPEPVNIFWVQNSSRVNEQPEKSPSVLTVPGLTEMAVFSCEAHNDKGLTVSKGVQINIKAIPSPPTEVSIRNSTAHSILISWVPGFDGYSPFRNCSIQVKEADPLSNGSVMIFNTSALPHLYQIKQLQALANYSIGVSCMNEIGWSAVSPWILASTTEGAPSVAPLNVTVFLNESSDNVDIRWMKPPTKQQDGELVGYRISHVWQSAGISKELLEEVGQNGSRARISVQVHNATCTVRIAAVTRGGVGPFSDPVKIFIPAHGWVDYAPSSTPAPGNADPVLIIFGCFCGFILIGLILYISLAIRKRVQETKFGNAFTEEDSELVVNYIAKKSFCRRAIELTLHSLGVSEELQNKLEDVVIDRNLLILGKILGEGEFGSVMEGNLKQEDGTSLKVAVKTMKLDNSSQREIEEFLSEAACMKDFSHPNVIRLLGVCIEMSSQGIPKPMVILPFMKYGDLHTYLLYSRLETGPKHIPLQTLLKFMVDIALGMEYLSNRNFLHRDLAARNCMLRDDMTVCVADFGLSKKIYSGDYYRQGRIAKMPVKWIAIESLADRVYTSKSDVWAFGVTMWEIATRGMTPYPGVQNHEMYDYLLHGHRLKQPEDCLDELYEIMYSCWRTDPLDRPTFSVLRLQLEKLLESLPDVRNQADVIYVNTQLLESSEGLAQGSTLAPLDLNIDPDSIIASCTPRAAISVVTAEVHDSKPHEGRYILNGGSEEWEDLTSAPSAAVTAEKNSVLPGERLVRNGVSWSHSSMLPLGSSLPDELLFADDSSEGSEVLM

TRKC = TRKC (Homo sapiens, UniProt Q16288); experiment: HotSpot kinase assay; details: read-out: % Enzyme Activity
[1] = In vitro microsomal stability assay; assay type: in vitro ADME; details: 1 μM, mouse liver microsomes, percent remaining at 30 min
Protocol: All incubations were initiated with the addition of NADPH-generating system at 37 °C for 30 min. At 0 and the end of incubation, 100 μL of aliquots were taken from the incubation mixture and placed into centrifuge tubes containing 100 μL of ice-cold acetonitrile to terminate the metabolic reaction. The samples were vortexed and centrifuged, and then, the supernatant injected onto LC/MS. Percent of remaining of each compound was calculated by comparing peak areas at 30 min to that at the initiation of incubation.

ROS1 = ROS1 (Homo sapiens, UniProt P08922); experiment: HotSpot kinase assay; details: read-out: % Enzyme Activity
Ba/F3-MER cells = experiment: Cell viability assay (MTS); assay type: cell-based; details: 72 h
[2] = In vivo pharmacokinetics study; details: mice
Protocol: The animal studies were performed according to NHRI institutional animal care and committee-approved procedures. Male ICR mice (25–35 g) were obtained from BioLASCO (Taiwan Co., Ltd., Ilan, Taiwan). […] All samples were analyzed for the parent drug by LC-MS/MS. Plasma concentration data were analyzed with a noncompartmental method.

DDR2 = DDR2 (Homo sapiens, UniProt Q16832); experiment: HotSpot kinase assay; details: read-out: % Enzyme Activity
IRR = IRR (Homo sapiens, UniProt P14616); experiment: HotSpot kinase assay; details: read-out: % Enzyme Activity
FLT3 [3] = target: FLT3 (Homo sapiens, UniProt P36888); experiment: HotSpot kinase assay; details: read-out: % Enzyme Activity
[4] = system: AXL phosphorylation in H1299 cells; experiment: Western blotting of AXL phosphorylation; details: 1 h treatment
TRKB = TRKB (Homo sapiens, UniProt Q16620); experiment: HotSpot kinase assay; details: read-out: % Enzyme Activity
DDR1 = DDR1 (Homo sapiens, UniProt Q08345); experiment: HotSpot kinase assay; details: read-out: % Enzyme Activity
TRKA = TRKA (Homo sapiens, UniProt P04629); experiment: HotSpot kinase assay; details: read-out: % Enzyme Activity
[5] = system: MER phosphorylation in G361 cells; experiment: Western blotting of MER phosphorylation; details: 48 h treatment
MC38 murine colon tumor = experiment: MC38 syngeneic tumor model; assay type: in vivo, mice; details: MC38 tumor-bearing mice, 25-50 mg/kg orally, 3 weeks
[6] = 14-day repeated dose toxicity study; details: ICR mice
[7] = system: immune cells in tumor and spleen of MC38 tumor-bearing mice; experiment: Immunophenotyping by flow cytometry; assay type: in vivo; details: 50 mg/kg QD, FOTO, 2 weeks
Protocol: Tumor and spleen tissues from the control and treated animals were harvested 2 h after the last dose (day 11). […] tissues were carefully removed from the tumors followed by digestion with 0.1% collagenase III in DMEM medium for 30 min at 37 °C with agitation every 10 min. The digestion was terminated by adding 10% FBS containing PBS. The single-cell suspension was filtered through a 40 μm filter after red blood cell lysis. Aliquots of the cell suspension were preincubated with the mouse Fc receptor blocker for 10 min before staining with appropriate antimouse antibody conjugate for Cd45, Cd3, Cd4, Cd8, Cd11b, Cd86, F4/80, AXL, and MER (all antibody conjugates from BioLegend) at 4 °C for 30 min followed by two washes in 1% BSA containing buffer and analyzed by flow cytometry to quantify the accumulation of infiltrating immune cells into the tumor. For analysis of Cd206, the cells were fixed using the Cyto X/Cytoperm kit (BD Biosciences) after surface marker staining and then stained with antimouse Cd206 antibody.

[8] = mouse, in vivo
KIT = KIT (Homo sapiens, UniProt P10721); experiment: HotSpot kinase assay; details: read-out: % Enzyme Activity
FLT3 [9] = system: FLT3; set-up: method as in PMID 25068800, PMID 27649555; details: cited from earlier work
[10] = male, ICR, mouse, plasma, iv 2 mg/kg, po 10 mg/kg

Chain of TRKC (Q16288 32-839): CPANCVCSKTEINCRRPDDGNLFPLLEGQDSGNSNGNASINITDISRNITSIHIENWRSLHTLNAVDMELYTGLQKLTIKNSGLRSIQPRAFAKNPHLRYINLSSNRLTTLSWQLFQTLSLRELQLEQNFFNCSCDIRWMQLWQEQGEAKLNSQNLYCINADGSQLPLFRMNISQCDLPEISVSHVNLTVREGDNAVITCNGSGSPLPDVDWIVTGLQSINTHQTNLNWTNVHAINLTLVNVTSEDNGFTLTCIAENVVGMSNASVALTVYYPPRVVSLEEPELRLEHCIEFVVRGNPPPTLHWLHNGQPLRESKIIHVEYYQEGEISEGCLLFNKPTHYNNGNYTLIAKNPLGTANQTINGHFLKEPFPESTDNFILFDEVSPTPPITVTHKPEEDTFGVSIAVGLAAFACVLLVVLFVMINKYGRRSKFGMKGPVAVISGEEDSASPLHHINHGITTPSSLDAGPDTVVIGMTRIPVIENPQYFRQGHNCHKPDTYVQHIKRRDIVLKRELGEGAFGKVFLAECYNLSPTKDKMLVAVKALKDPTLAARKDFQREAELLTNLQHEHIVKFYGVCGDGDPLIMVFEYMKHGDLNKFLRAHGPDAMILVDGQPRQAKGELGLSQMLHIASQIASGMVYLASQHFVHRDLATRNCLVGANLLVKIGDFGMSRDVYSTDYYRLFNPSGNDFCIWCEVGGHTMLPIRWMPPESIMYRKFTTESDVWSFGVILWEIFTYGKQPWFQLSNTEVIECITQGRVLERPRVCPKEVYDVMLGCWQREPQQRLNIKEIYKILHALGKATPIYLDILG
Chain of DDR2 (Q16832 22-855): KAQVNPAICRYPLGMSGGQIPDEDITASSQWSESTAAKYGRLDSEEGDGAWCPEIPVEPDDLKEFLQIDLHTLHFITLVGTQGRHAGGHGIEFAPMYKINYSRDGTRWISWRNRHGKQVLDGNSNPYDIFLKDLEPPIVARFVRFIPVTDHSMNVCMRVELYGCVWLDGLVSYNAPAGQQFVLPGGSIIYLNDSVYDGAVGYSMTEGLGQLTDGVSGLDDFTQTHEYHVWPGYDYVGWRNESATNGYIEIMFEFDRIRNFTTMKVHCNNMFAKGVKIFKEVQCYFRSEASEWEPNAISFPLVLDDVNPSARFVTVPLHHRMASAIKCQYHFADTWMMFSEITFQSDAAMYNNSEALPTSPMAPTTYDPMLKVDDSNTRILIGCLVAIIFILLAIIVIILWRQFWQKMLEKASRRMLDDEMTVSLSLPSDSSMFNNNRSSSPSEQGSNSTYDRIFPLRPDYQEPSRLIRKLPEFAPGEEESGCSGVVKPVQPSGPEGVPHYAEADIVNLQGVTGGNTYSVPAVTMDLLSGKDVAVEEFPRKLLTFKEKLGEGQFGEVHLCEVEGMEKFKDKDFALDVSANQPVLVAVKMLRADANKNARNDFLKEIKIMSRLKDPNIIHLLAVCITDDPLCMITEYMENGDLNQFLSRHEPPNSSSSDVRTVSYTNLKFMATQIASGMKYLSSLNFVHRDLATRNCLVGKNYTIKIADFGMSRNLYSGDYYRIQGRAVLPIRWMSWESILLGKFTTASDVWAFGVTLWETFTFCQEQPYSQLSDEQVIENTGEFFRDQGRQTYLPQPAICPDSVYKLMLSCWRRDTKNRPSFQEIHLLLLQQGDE
Chain of DDR1 (Q08345 19-913): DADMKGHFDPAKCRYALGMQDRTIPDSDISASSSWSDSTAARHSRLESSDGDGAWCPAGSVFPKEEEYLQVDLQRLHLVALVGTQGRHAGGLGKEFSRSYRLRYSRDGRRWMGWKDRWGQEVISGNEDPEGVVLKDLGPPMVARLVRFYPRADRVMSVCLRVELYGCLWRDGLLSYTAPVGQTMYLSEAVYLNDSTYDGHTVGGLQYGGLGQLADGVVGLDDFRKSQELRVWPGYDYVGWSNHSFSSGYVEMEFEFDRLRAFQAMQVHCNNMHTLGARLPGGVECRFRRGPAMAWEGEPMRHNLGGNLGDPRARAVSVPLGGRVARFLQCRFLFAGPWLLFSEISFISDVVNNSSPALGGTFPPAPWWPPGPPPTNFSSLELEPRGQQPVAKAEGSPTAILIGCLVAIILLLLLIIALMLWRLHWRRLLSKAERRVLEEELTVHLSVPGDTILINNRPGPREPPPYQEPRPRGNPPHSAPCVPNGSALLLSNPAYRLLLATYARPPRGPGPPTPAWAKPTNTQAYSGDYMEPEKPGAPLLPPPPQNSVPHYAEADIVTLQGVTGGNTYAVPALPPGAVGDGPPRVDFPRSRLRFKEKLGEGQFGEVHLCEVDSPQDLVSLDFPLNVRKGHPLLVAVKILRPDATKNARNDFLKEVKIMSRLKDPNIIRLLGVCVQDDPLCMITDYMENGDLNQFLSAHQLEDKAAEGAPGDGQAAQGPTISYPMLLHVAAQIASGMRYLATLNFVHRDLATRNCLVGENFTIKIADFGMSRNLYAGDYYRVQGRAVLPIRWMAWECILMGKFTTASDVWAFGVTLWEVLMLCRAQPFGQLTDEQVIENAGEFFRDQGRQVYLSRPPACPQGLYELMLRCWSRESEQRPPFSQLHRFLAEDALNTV
Chain of TRKB (Q16620 32-822): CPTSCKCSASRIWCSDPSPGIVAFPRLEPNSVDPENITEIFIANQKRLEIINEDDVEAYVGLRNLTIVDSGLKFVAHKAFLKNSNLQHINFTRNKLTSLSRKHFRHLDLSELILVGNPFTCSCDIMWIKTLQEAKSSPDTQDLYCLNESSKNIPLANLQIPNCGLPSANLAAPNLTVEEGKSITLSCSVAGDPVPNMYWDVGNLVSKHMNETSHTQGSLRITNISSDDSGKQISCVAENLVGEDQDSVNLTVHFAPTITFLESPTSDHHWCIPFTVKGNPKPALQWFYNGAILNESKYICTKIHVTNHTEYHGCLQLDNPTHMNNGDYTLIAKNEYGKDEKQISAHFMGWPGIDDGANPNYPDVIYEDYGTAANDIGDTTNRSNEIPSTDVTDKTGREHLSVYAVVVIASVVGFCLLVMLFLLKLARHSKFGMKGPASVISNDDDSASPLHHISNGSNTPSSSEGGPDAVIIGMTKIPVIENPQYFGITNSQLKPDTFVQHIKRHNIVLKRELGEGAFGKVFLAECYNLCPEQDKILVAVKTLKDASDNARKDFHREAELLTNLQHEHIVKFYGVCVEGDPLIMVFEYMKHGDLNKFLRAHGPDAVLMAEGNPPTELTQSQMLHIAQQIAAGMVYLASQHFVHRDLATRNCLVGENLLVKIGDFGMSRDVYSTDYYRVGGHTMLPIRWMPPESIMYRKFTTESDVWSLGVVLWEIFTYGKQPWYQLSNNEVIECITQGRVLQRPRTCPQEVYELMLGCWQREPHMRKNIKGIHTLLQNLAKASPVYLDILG
Chain of IRR (P14616 27-1297): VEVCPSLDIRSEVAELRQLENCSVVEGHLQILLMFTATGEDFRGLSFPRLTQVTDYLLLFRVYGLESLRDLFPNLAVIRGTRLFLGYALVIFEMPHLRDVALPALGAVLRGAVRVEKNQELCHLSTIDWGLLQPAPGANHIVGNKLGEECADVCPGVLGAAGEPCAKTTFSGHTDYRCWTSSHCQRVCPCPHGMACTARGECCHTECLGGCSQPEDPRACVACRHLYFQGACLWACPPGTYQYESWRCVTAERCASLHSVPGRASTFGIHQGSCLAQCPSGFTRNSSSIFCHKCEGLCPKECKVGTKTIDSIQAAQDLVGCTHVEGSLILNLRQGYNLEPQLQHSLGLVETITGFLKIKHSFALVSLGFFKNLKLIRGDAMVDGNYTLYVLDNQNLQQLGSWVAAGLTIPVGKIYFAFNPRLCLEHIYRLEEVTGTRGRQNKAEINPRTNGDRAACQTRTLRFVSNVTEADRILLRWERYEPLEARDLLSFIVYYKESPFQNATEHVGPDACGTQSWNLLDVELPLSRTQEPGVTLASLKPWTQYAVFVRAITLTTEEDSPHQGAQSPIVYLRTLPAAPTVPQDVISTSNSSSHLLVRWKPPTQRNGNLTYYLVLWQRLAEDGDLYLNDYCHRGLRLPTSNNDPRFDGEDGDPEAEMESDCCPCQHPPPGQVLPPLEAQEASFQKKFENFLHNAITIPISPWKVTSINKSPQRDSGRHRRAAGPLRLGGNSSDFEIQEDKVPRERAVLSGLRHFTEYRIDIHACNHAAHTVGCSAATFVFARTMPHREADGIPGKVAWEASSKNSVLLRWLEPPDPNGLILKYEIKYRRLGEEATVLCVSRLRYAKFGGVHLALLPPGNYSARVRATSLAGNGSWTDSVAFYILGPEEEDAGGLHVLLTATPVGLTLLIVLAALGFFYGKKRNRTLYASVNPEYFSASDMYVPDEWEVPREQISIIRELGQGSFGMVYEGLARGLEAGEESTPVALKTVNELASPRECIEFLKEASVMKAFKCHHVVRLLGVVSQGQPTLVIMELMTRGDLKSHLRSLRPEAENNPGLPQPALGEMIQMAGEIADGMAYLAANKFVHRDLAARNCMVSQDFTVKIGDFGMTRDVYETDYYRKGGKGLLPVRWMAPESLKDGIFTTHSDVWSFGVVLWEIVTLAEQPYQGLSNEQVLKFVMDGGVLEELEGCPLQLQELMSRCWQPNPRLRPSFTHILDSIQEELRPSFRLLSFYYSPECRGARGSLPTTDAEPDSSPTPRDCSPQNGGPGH

Compound: CCC[C@@H](C)Nc1ncc2c(C3CCN(C(=O)c4cc(C)nc(C)c4)CC3)cn([C@H]3CC[C@H](O)CC3)c2n1 [Compound 2, UNC5293]
- IC50 (MER): 0.9 nM

Compound: CN(C)Cc1cccc(-c2c(-c3cnn(C)c3)oc3ncnc(Oc4ccc(NC(=O)c5cccn(-c6ccc(F)cc6)c5=O)cc4)c23)c1 [Compound 33, N-{4-[(5-{3-[(Dimethylamino)methyl]phenyl}-6-(1-methyl-1H-pyrazol-4-yl)furo[2,3-d]pyrimidin-4-yl)oxy]phenyl}-1-(4-fluorophenyl)-2-oxo-1,2-dihydropyridine-3-carboxamide]
- remaining activity at 1 µM (TRKC): 2.26%
- Microsomal stability @ 30 min [1]: 79%
- remaining activity at 1 µM (ROS1): 2.88%
- IC50 (Ba/F3-MER cells): 5 nM and 4.8 nM
- bioavailability [2, 10]: > 20%
- bioavailability at 24 h [2, 10]: 54.6%
- clearance ([2]; male, ICR, mouse, plasma, iv 2 mg/kg, read-out: iv CL): 12.6 mL/min/kg
- half-life ([2]; male, ICR, mouse, plasma, iv 2 mg/kg, read-out: iv T1/2 (converted)): 4.5 h
- Vd ([2]; male, ICR, mouse, plasma, iv 2 mg/kg, read-out: iv Vss): 5.2 L/kg
- Tmax at 24 h ([2]; male, ICR, mouse, plasma, po 10 mg/kg): 5.3 h
- half-life at 24 h ([2]; male, ICR, mouse, plasma, po 10 mg/kg, read-out: po T1/2 (converted)): 5.2 h
- iv DNAUC(0–inf) ([2]; iv 2 mg/kg, dose-normalized): 1,573.0 ng × hr/mL
- po DNAUC(0–inf) ([2]; po 10 mg/kg, dose-normalized): 858.8 ng·h/mL
- po DNCmax ([2]; po 10 mg/kg, dose-normalized): 95.0 ng/mL
- remaining activity at 1 µM (DDR2): 4.45%
- remaining activity at 1 µM (IRR): 1.79%
- remaining activity at 1 µM (FLT3 [3]): -0.03%
- Gas6-mediated AXL phosphorylation [4]: effectively blocked
- remaining activity at 1 µM (TRKB): 6.07%
- remaining activity at 1 µM (DDR1): 9.39%
- remaining activity at 1 µM (TRKA): 3.35%
- MER phosphorylation induced by MAB8912 [5]: effectively blocked MER phosphorylation
- body weight during treatment (MC38 murine colon tumor): well-tolerated without significant body weight loss
- CBC [6]: No significant
- body weight [6]: No effect on body
- kidney serum biomarker CRE [6]: Mild effect on CRE; also recorded: mild decline in kidney serum biomarker CRE at 30 and 100 mpk
- organ weight [6]: No significant
- increase in intratumoral M1-like macrophages [7]: 2 fold
- increase in percentage of Cd3^+ pan-T cells in spleen [7]: 2 fold
- increase in percentage of Cd4^+ helper T cells in spleen [7]: 2 fold
- increase in percentage of Cd8^+ cytotoxic T cells in spleen [7]: 6 fold
- toxicity, 14-day repeated dose [8]: no significant toxicity at any dose level
- remaining activity at 1 µM (KIT): 1.05%
